Measured values as given in PubChem BioAssay AID248 (DTP/NCI, 2004).
Several values for one entry are separate records, joined by “and”; a condition that tells them apart may be missing. Equal entries are not always repeated. Inconclusive results and toxic doses are left out. Cut-off read from the data, not from the text of the source: active = T/C of 150% or more; inactive = T/C below 125%.

Tested on: L1210 leukemia ip in BDF1 mice, survival T/C
Assay: NCI In Vivo Anticancer Drug Screen. Data for tumor model L1210 Leukemia (intraperitoneal) in B6D2F1 (BDF1) mice
Conditions: endpoint: mean survival time, higher = longer survival
Method in brief: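 Ratio derived from survival: compound-dosed mice over vehicle-dosed mice, all bearing a transplantable tumor.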

[1] = dose: 100.0 mg/kg/injection, schedule: Q04DX003 (ip), vehicle: Klucel (hydroxypropylcellulose) (HPC)
[2] = dose: 200.0 mg/kg/injection, schedule: Q04DX003 (ip), vehicle: Klucel (hydroxypropylcellulose) (HPC)
[3] = dose: 400.0 mg/kg/injection, schedule: Q04DX003 (ip), vehicle: Klucel (hydroxypropylcellulose) (HPC)
[4] = dose: 100.0 mg/kg/injection, schedule: Q01DX001 (ip), vehicle: saline
[5] = dose: 200.0 mg/kg/injection, schedule: Q01DX001 (ip), vehicle: saline
[6] = dose: 400.0 mg/kg/injection, schedule: Q01DX001 (ip), vehicle: saline

Measured: T/C

Cc1cc2nc3c(=O)[nH]c(=O)nc-3n(CC(O)C(O)C(O)C(O)CO)c2cc1C (stereo not given)
inactive: dose: 14.12 mg/kg/injection, schedule: Q01DX Z (ip), vehicle: carboxymethylcellulose (CMC) 91 % of control | dose: 25.0 mg/kg/injection, schedule: Q01DX015 (ip), vehicle: saline 100 % of control | dose: 28.25 mg/kg/injection, schedule: Q01DX Z (ip), vehicle: carboxymethylcellulose (CMC) 93 % of control | dose: 50.0 mg/kg/injection, schedule: Q01DX015 (ip), vehicle: saline 96 % of control | dose: 56.5 mg/kg/injection, schedule: Q01DX Z (ip), vehicle: carboxymethylcellulose (CMC) 90 % of control | dose: 100.0 mg/kg/injection, schedule: Q01DX015 (ip), vehicle: saline 96 % of control | dose: 100.0 mg/kg/injection, schedule: Q01DX Z (ip), vehicle: carboxymethylcellulose (CMC) 97 % of control | dose: 113.0 mg/kg/injection, schedule: Q01DX Z (ip), vehicle: carboxymethylcellulose (CMC) 89 % of control | dose: 200.0 mg/kg/injection, schedule: Q01DX015 (ip), vehicle: saline 97 % of control and 98 % of control | dose: 200.0 mg/kg/injection, schedule: Q01DX Z (ip), vehicle: carboxymethylcellulose (CMC) 97 % of control | dose: 400.0 mg/kg/injection, schedule: Q01DX001 (ip), vehicle: acetone 103 % of control | dose: 400.0 mg/kg/injection, schedule: Q01DX015 (ip), vehicle: saline 92 % of control | dose: 400.0 mg/kg/injection, schedule: Q01DX Z (ip), vehicle: carboxymethylcellulose (CMC) 94 % of control | dose: 800.0 mg/kg/injection, schedule: Q01DX001 (ip), vehicle: acetone 95 % of control | dose: 800.0 mg/kg/injection, schedule: Q01DX Z (ip), vehicle: carboxymethylcellulose (CMC) 90 % of control

CCCCCCCCC(=O)NCc1cccc(OC)c1
inactive: [1] 95 % of control | [2] 95 % of control | [3] 105 % of control

Cc1ccc(C(=O)C=C(C(F)(F)F)C(F)(F)F)cc1
inactive: dose: 6.25 mg/kg/injection, schedule: Q04DX003 (ip), vehicle: saline 94 % of control | dose: 12.5 mg/kg/injection, schedule: Q04DX003 (ip), vehicle: saline 96 % of control | dose: 25.0 mg/kg/injection, schedule: Q04DX003 (ip), vehicle: saline 103 % of control

NNc1nc2c(N)ncnc2n1C1OC(CO)C(O)C1O (stereo not given)
inactive: dose: 100.0 mg/kg/injection, schedule: Q01DX005 (ip), vehicle: saline 104 % of control | dose: 200.0 mg/kg/injection, schedule: Q01DX005 (ip), vehicle: saline 107 % of control

O=C1c2ccccc2-c2c(Br)cccc21
inactive: dose: 50.0 mg/kg/injection, schedule: Q04DX002 (ip), vehicle: saline with Tween-80 91 % of control | dose: 100.0 mg/kg/injection, schedule: Q04DX002 (ip), vehicle: saline with Tween-80 91 % of control | dose: 200.0 mg/kg/injection, schedule: Q04DX002 (ip), vehicle: saline with Tween-80 102 % of control

CC(=O)Nc1cc(C)no1
inactive: dose: 100.0 mg/kg/injection, schedule: Q01DX009 (ip), vehicle: saline 103 % of control | [1] 102 % of control | dose: 200.0 mg/kg/injection, schedule: Q01DX009 (ip), vehicle: saline 100 % of control | [2] 96 % of control | dose: 400.0 mg/kg/injection, schedule: Q01DX009 (ip), vehicle: saline 101 % of control | [3] 92 % of control

Cc1ccc(N)cc1[N+](=O)[O-]
inactive: dose: 100.0 mg/kg/injection, schedule: Q01DX001 (ip), vehicle: Klucel (hydroxypropylcellulose) (HPC) 105 % of control | dose: 200.0 mg/kg/injection, schedule: Q01DX001 (ip), vehicle: Klucel (hydroxypropylcellulose) (HPC) 95 % of control | dose: 400.0 mg/kg/injection, schedule: Q01DX001 (ip), vehicle: Klucel (hydroxypropylcellulose) (HPC) 95 % of control

CC(=O)/C=C1\C(=O)Nc2ccccc21
inactive: dose: 100.0 mg/kg/injection, schedule: Q04DX002 (ip), vehicle: Klucel (hydroxypropylcellulose) (HPC) 104 % of control | dose: 200.0 mg/kg/injection, schedule: Q04DX002 (ip), vehicle: Klucel (hydroxypropylcellulose) (HPC) 89 % of control | dose: 400.0 mg/kg/injection, schedule: Q04DX002 (ip), vehicle: Klucel (hydroxypropylcellulose) (HPC) 91 % of control

O=C(O)c1ccc(N/N=C\c2cc(=O)[nH]c(=O)[nH]2)cc1
inactive: dose: 5.0 mg/kg/injection, schedule: Q01DX001 (ip), vehicle: saline 97 % of control | dose: 10.0 mg/kg/injection, schedule: Q01DX001 (ip), vehicle: saline 97 % of control | dose: 20.0 mg/kg/injection, schedule: Q01DX001 (ip), vehicle: saline 98 % of control | dose: 40.0 mg/kg/injection, schedule: Q01DX001 (ip), vehicle: saline 97 % of control

CCN1CC2C3CCC(C)(O3)C2C1 (stereo not given)
inactive: dose: 44.0 mg/kg/injection, schedule: Q01DX Z (ip), vehicle: methylcellulose (MC) 100 % of control | dose: 66.0 mg/kg/injection, schedule: Q01DX Z (ip), vehicle: methylcellulose (MC) 92 % of control | dose: 100.0 mg/kg/injection, schedule: Q01DX Z (ip), vehicle: methylcellulose (MC) 98 % of control

Cc1ccc([NH-])cc1.Cc1ccc([NH-])cc1.[Cl][Pt+2][Cl]
inactive: dose: 6.25 mg/kg/injection, schedule: Q01DX009 (ip), vehicle: saline with Tween-80 101 % of control | dose: 12.5 mg/kg/injection, schedule: Q01DX009 (ip), vehicle: saline with Tween-80 95 % of control

OCc1ccc(O)cn1
inactive: [4] 97 % of control | [5] 87 % of control | [6] 94 % of control

O=C1c2ccccc2C(=O)N1OCc1ccc(CON2C(=O)c3ccccc3C2=O)cc1
inactive: dose: 100.0 mg/kg/injection, schedule: Q04DX003 (ip), vehicle: saline 101 % of control | dose: 200.0 mg/kg/injection, schedule: Q04DX003 (ip), vehicle: saline 95 % of control | dose: 400.0 mg/kg/injection, schedule: Q04DX003 (ip), vehicle: saline 95 % of control

CCN(C(=O)/C=C/c1ccccc1)C1CCCCC1
inactive: dose: 100.0 mg/kg/injection, schedule: Q01DX009 (ip), vehicle: Klucel (hydroxypropylcellulose) (HPC) 94 % of control | [1] 102 % of control | dose: 200.0 mg/kg/injection, schedule: Q01DX009 (ip), vehicle: Klucel (hydroxypropylcellulose) (HPC) 102 % of control | [2] 96 % of control | dose: 400.0 mg/kg/injection, schedule: Q01DX009 (ip), vehicle: Klucel (hydroxypropylcellulose) (HPC) 86 % of control | [3] 105 % of control

CCCCC(=O)N/N=C\c1ccc2c(c1)OCO2
inactive: [4] 94 % of control | [5] 105 % of control | [6] 91 % of control

CC(CO)CCC(O)C(C)C1CCC2C3CCC4CC(O)CCC4(C)C3CCC12C (stereo not given)
inactive: dose: 6.25 mg/kg/injection, schedule: Q01DX001 (ip), vehicle: saline with Tween-80 91 % of control | dose: 12.5 mg/kg/injection, schedule: Q01DX001 (ip), vehicle: saline with Tween-80 91 % of control | dose: 25.0 mg/kg/injection, schedule: Q01DX001 (ip), vehicle: saline with Tween-80 90 % of control | dose: 100.0 mg/kg/injection, schedule: Q01DX001 (ip), vehicle: saline with Tween-80 92 % of control | dose: 400.0 mg/kg/injection, schedule: Q01DX001 (ip), vehicle: saline with Tween-80 92 % of control

COc1ccc(NC(Nc2ccc(OC)cc2)C(Cl)(Cl)Cl)cc1
inactive: dose: 100.0 mg/kg/injection, schedule: Q01DX009 (ip), vehicle: other 90 % of control | dose: 100.0 mg/kg/injection, schedule: Q04DX003 (ip), vehicle: other 87 % of control | dose: 200.0 mg/kg/injection, schedule: Q01DX009 (ip), vehicle: other 93 % of control | dose: 200.0 mg/kg/injection, schedule: Q04DX003 (ip), vehicle: other 97 % of control | dose: 400.0 mg/kg/injection, schedule: Q01DX009 (ip), vehicle: other 123 % of control | dose: 400.0 mg/kg/injection, schedule: Q04DX003 (ip), vehicle: other 114 % of control

CCN(CC)C(=S)[S][Sb]([c]1ccccc1)[c]1ccccc1
inactive: dose: 100.0 mg/kg/injection, schedule: Q01DX001 (ip), vehicle: steriod suspending solution 110 % of control

Cc1cnc2c(=O)[nH]c(=O)[nH]c2n1
inactive: dose: 12.5 mg/kg/injection, schedule: Q01DX009 (ip), vehicle: Klucel (hydroxypropylcellulose) (HPC) 102 % of control | dose: 25.0 mg/kg/injection, schedule: Q01DX009 (ip), vehicle: Klucel (hydroxypropylcellulose) (HPC) 98 % of control | dose: 50.0 mg/kg/injection, schedule: Q01DX009 (ip), vehicle: Klucel (hydroxypropylcellulose) (HPC) 96 % of control | [1] 96 % of control | [2] 92 % of control | [3] 92 % of control
